Assay results as given in ChEMBL document CHEMBL3132760, “Investigating -secretase protein interactions in live cells using active site-directed clickable dual-photoaffinity probes” (Medchemcomm, 2014).

What follows are molecules tested against Gamma-secretase (assay: Inhibition of gamma-secretase (unknown origin) expressed in CHO cells expressing APP assessed as inhibition of amyloid beta 42 production).
Assay type: cell-based, Homo sapiens
With `C#CCCCCNC(=O)[C@H](Cc1ccccc1)NC(=O)[C@H](CC(C)C)NC(=O)[C@H](Cc1ccccc1)C[C@@H](O)[C@H](Cc1ccccc1)NC(=O)c1ccc(C(=O)c2ccccc2)cc1` the IC50 was greater than 1 µM. Work on `C#CCCCCNC(=O)[C@H](Cc1ccc(C(=O)c2ccccc2)cc1)NC(=O)[C@H](CC(C)C)NC(=O)[C@H](Cc1ccccc1)C[C@@H](O)[C@H](Cc1ccccc1)NC(=O)c1ccc(C(=O)c2ccccc2)cc1` yielded an IC50 of 0.18 µM. Molecule `C#CCOc1ccc(C(=O)c2ccc(OCCOCCOCCNC(=O)[C@H](Cc3ccccc3)NC(=O)[C@H](CC(C)C)NC(=O)[C@H](Cc3ccccc3)C[C@@H](O)[C@H](Cc3ccccc3)NC(=O)OC(C)(C)C)cc2)cc1` has an IC50 of 0.001 µM. Work on `C#CCCCC(=O)Nc1ccc(C(=O)c2ccc(NC(=O)COCCOCCOCC(=O)NCCCCCNC(=O)[C@H](Cc3ccccc3)NC(=O)[C@H](CC(C)C)NC(=O)[C@H](Cc3ccccc3)C[C@@H](O)[C@H](Cc3ccccc3)NC(=O)OC(C)(C)C)cc2)cc1` yielded an IC50 of 0.012 µM. In the case of `C#CCCCC(=O)Nc1ccc(C(=O)c2ccc(NC(=O)COCCOCCOCC(=O)NCCCOCCOCCOCCCNC(=O)[C@H](Cc3ccccc3)NC(=O)[C@H](CC(C)C)NC(=O)[C@H](Cc3ccccc3)C[C@@H](O)[C@H](Cc3ccccc3)NC(=O)OC(C)(C)C)cc2)cc1`, the IC50 is reported as 0.023 µM. `C#CCOc1ccc(C(=O)c2ccc(OCCOCCOCCNC(=O)[C@H](Cc3ccc(C(=O)c4ccccc4)cc3)NC(=O)[C@H](CC(C)C)NC(=O)[C@H](Cc3ccccc3)C[C@@H](O)[C@H](Cc3ccccc3)NC(=O)OC(C)(C)C)cc2)cc1` was tested, and the IC50 was 0.0015 µM. `C#CCCCC(=O)Nc1ccc(C(=O)c2ccc(NC(=O)COCCOCCOCC(=O)NCCCCCNC(=O)[C@H](Cc3ccc(C(=O)c4ccccc4)cc3)NC(=O)[C@H](CC(C)C)NC(=O)[C@H](Cc3ccccc3)C[C@@H](O)[C@H](Cc3ccccc3)NC(=O)OC(C)(C)C)cc2)cc1` showed an IC50 of 0.033 µM. With `C#CCCCC(=O)Nc1ccc(C(=O)c2ccc(NC(=O)COCCOCCOCC(=O)NCCCOCCOCCOCCCNC(=O)[C@H](Cc3ccc(C(=O)c4ccccc4)cc3)NC(=O)[C@H](CC(C)C)NC(=O)[C@H](Cc3ccccc3)C[C@@H](O)[C@H](Cc3ccccc3)NC(=O)OC(C)(C)C)cc2)cc1` the IC50 was 0.02 µM.
